Laboratory results as given in ChEMBL document CHEMBL6182867, “Discovery of ultra short β-peptoids with selective activity against drug-resistant Mycobacterium tuberculosis” (Eur J Med Chem, 2025).
≈ marks a conversion by molar mass, not a printed value. Calls of active or inactive are those of the source. No cut-off for these calls is given here.

Key:
[1] = tested on: Mycobacterium tuberculosis; experiment: Antitubercular activity against Mycobacterium tuberculosis H37Rv ATCC 27294 by microplate alamar blue assay; format: functional
[2] = tested on: Mycobacterium tuberculosis; experiment: Antitubercular activity against Mycobacterium tuberculosis H37Rv by microplate alamar blue assay; format: functional
[3] = tested on: Mycobacteroides abscessus; experiment: Antibacterial activity against Mycobacterium abscessus ATCC 19977 incubated for 3 days by microplate alamar blue assay; format: functional; conditions: ATCC 19977, 72 h, time 3 day
Mycobacteroides chelonae = experiment: Antibacterial activity against Mycobacteroides chelonae ATCC 35752 incubated for 3 days by microplate alamar blue assay; format: functional; conditions: ATCC 35752, 72 h, time 3 day
Mycobacterium marinum = experiment: Antibacterial activity against Mycobacterium marinum ATCC 927 incubated for 5 days by microplate alamar blue assay; format: functional; conditions: ATCC 927, 120 h, time 5 day
Mycobacterium avium = experiment: Antibacterial activity against Mycobacterium avium ATCC 15769 incubated for 6 days by microplate alamar blue assay; format: functional; conditions: ATCC 15769, 144 h, time 6 day
Mycobacterium kansasii = experiment: Antibacterial activity against Mycobacterium kansasii ATCC 12478 incubated for 7 days by microplate alamar blue assay; format: functional; conditions: ATCC 12478, 168 h, time 7 day
[4] = tested on: Mycobacterium tuberculosis; experiment: Antitubercular activity against Mycobacterium tuberculosis KMA 1354 by microplate alamar blue assay; format: functional
[5] = tested on: Mycobacterium tuberculosis; experiment: Antitubercular activity against Mycobacterium tuberculosis KMA 3899 by microplate alamar blue assay; format: functional
[6] = tested on: Mycobacterium tuberculosis; experiment: Antitubercular activity against Mycobacterium tuberculosis KMA 4244 by microplate alamar blue assay; format: functional
[7] = tested on: Mycobacterium tuberculosis; experiment: Antitubercular activity against Mycobacterium tuberculosis KMA 4439 by microplate alamar blue assay; format: functional
[8] = tested on: Mycobacterium tuberculosis; experiment: Antitubercular activity against Mycobacterium tuberculosis KMA 5282 by microplate alamar blue assay; format: functional
[9] = tested on: Mycobacterium tuberculosis; experiment: Bactericidal activity against Mycobacterium tuberculosis H37Rv measured up to 7 days by luminescence assay; format: functional; conditions: time <= 7 day
[10] = Cytotoxicity against African green monkey Vero cells measured after 3 days by resazurin dye based fluorescence assay; format: toxicity, cell-based; conditions: African green monkey (Chlorocebus sabaeus)
Mitochondrial membrane [11] = experiment: Induction of […] membrane potential loss in Mycobacterium tuberculosis H37Rv at <=MIC measured after 15 mins by DiOC2 dye based fluorescence assay; format: cell membranes
Mitochondrial membrane [12] = experiment: Induction of […] membrane potential loss in Mycobacterium tuberculosis H37Rv at <=MIC measured after 24 hrs by DiOC2 dye based fluorescence assay; format: cell membranes
Enterococcus faecium = experiment: Antibacterial activity against Enterococcus faecium by microplate alamar blue assay; format: functional
Staphylococcus aureus = experiment: Antibacterial activity against Staphylococcus aureus by microplate alamar blue assay; format: functional
Klebsiella pneumoniae = experiment: Antibacterial activity against Klebsiella pneumoniae by microplate alamar blue assay; format: functional
Acinetobacter baumannii = experiment: Antibacterial activity against Acinetobacter baumannii by microplate alamar blue assay; format: functional
Pseudomonas aeruginosa = experiment: Antibacterial activity against Pseudomonas aeruginosa by microplate alamar blue assay; format: functional
Klebsiella aerogenes = experiment: Antibacterial activity against Enterobacter aerogenes by microplate alamar blue assay; format: functional
Candida albicans = experiment: Antifungal activity against Candida albicans by microplate alamar blue assay; format: functional
[13] = tested on: Mycobacterium tuberculosis; experiment: Antitubercular activity against Mycobacterium tuberculosis H37Rv assessed as post antibiotic affect by measuring time required for 1 log10 increase in RLU at 5 uM measured daily for up to 14 days by luminescence assay; format: functional; conditions: time <= 14 day
[14] = tested on: Mycobacterium tuberculosis; experiment: Antitubercular activity against Mycobacterium tuberculosis H37Rv assessed as post antibiotic affect by measuring time required for 1 log10 increase in RLU at 0.5 uM measured daily for up to 14 days by luminescence assay; format: functional; conditions: time <= 14 day
[15] = tested on: Mycobacterium tuberculosis; experiment: Antitubercular activity against Mycobacterium tuberculosis H37Rv assessed as post antibiotic affect by measuring time required for 1 log10 increase in RLU at 0.05 uM measured daily for up to 14 days by luminescence assay; format: functional; conditions: time <= 14 day

With CC(=O)NC[C@H]1CN(c2ccc(N3CCOCC3)c(F)c2)C(=O)O1 [LINEZOLID] the MIC90 [1] was 0.93 µM, the MIC90 [2] was 0.97 µM (≈ 0.327 µg/mL) and the MIC90 [3] was 88 µM (≈ 29.7 µg/mL). It also gave an MIC90 (Mycobacteroides chelonae) of 5.13 µM (≈ 1.73 µg/mL), an MIC90 (Mycobacterium marinum) of 17.4 µM (≈ 5.88 µg/mL) and an MIC90 (Mycobacterium avium) of 93.5 µM (≈ 31.5 µg/mL). It also gave an MIC90 (Mycobacterium kansasii) of 85.6 µM (≈ 28.9 µg/mL), an MIC90 [4] of 0.91 µM (≈ 0.307 µg/mL) and an MIC90 [5] of 0.48 µM (≈ 0.162 µg/mL). For the same compound, the MIC90 [6] was 1 µM (≈ 0.337 µg/mL), the MIC90 [7] was 0.95 µM (≈ 0.32 µg/mL) and the MIC90 [8] was 1.89 µM (≈ 0.638 µg/mL). It also gave an MBC99 [9] of 7310 mg/L (≈ 21.7 mM).
Compound CCN(CC)C(=O)CN(Cc1cccc2ccccc12)C(=O)CNCCC(c1ccccc1)c1ccccc1 has an MIC90 [1] of 4.84 mg/L.
With N#CC(C#N)=NNc1cccc(Cl)c1 [CARBONYL CYANIDE M-CHLOROPHENYLHYDRAZONE] the IC50 at 3 days [10] was 10.8 µM, the Activity (Mitochondrial membrane [11]) was “inactive” and the Activity (Mitochondrial membrane [12]) was “Active”.
COCCN(CCOC)C(=O)CCNCC1CCCO1 (stereo not given) gave an MIC90 [1] of 92.8 mg/L.
COCCN(CCOC)C(=O)CCNCCC(c1ccccc1)c1ccccc1 showed an MIC90 [1] of 8.9 mg/L.
Work on Nc1c2c(nc3ccccc13)CCCC2 [TACRINE] yielded an IC50 at 3 days [10] of 90.7 µM.
In the case of CC(C)/N=c1\cc2n(-c3ccc(Cl)cc3)c3ccccc3nc-2cc1Nc1ccc(Cl)cc1 [CLOFAZIMINE], the MIC90 [3] is reported as 10.7 µM (≈ 5.06 µg/mL), the MIC90 (Mycobacteroides chelonae) is reported as 5.89 µM (≈ 2.79 µg/mL) and the MIC90 (Mycobacterium marinum) is reported as 9.92 µM (≈ 4.7 µg/mL). The MIC90 (Mycobacterium avium) was 5.78 µM (≈ 2.74 µg/mL) and the MIC90 (Mycobacterium kansasii) was 5.68 µM (≈ 2.69 µg/mL).
With C[C@H]1c2cccc(O)c2C(=O)C2=C(O)[C@]3(O)C(=O)C(C(N)=O)=C(O)[C@@H](N(C)C)[C@@H]3[C@@H](O)[C@@H]21 [DOXYCYCLINE ANHYDROUS] the MIC90 (Enterococcus faecium) was less than 0.195 µM, the MIC90 (Staphylococcus aureus) was less than 0.195 µM and the MIC90 (Klebsiella pneumoniae) was 0.34 µM (≈ 0.151 µg/mL). For the same compound, the MIC90 (Acinetobacter baumannii) was less than 0.195 µM, the MIC90 (Pseudomonas aeruginosa) was 5.49 µM (≈ 2.44 µg/mL) and the MIC90 (Klebsiella aerogenes) was 2.84 µM (≈ 1.26 µg/mL).
With C[C@@H]1[C@H](O)[C@@H](C)/C=C/C=C/C=C/C=C/C=C/C=C/C=C/[C@H](O[C@@H]2O[C@H](C)[C@@H](O)[C@H](N)[C@@H]2O)C[C@@H]2O[C@](O)(C[C@@H](O)C[C@@H](O)[C@H](O)CC[C@@H](O)C[C@@H](O)CC(=O)O[C@H]1C)C[C@H](O)[C@H]2C(=O)O [AMPHOTERICIN B] the MIC90 (Candida albicans) was less than 0.195 µM.
CC[C@H]1OC(=O)[C@H](C)[C@@H](O[C@H]2C[C@@](C)(OC)[C@@H](O)[C@H](C)O2)[C@H](C)[C@@H](O[C@@H]2O[C@H](C)C[C@H](N(C)C)[C@H]2O)[C@](C)(OC)C[C@@H](C)C(=O)[C@H](C)[C@@H](O)[C@]1(C)O [CLARITHROMYCIN] gave an MIC90 [3] greater than 10 µM, an MIC90 (Mycobacteroides chelonae) of 0.15 µM (≈ 0.112 µg/mL) and an MIC90 (Mycobacterium marinum) of 4.72 µM (≈ 3.53 µg/mL). For the same compound, the MIC90 (Mycobacterium avium) was 2.35 µM (≈ 1.76 µg/mL) and the MIC90 (Mycobacterium kansasii) was 2.3 µM (≈ 1.72 µg/mL).
In the case of CC(C)N(C(=O)CCNCc1cccs1)C(C)C, the MIC90 [1] is reported as 43.8 mg/L.
Compound O=C(CNCc1cccc2ccccc12)NCCC(c1ccccc1)c1ccccc1 has an MIC90 [1] of 7.25 mg/L.
In the case of CO[C@H]1/C=C/O[C@@]2(C)Oc3c(C)c(O)c4c(O)c(c(/C=N/N5CCN(C)CC5)c(O)c4c3C2=O)NC(=O)/C(C)=C\C=C\[C@H](C)[C@H](O)[C@@H](C)[C@@H](O)[C@@H](C)[C@H](OC(C)=O)[C@@H]1C [RIFAMPIN], the MIC90 [1] is reported as 0.02 µM, the MIC90 [2] is reported as 0.06 µM (≈ 0.0494 µg/mL) and the MIC90 [3] is reported as greater than 10 µM. For the same compound, the MIC90 (Mycobacteroides chelonae) was 6.93 µM (≈ 5.7 µg/mL), the MIC90 (Mycobacterium marinum) was 2.23 µM (≈ 1.84 µg/mL) and the MIC90 (Mycobacterium avium) was 3.05 µM (≈ 2.51 µg/mL). For the same compound, the MIC90 (Mycobacterium kansasii) was 2.36 µM (≈ 1.94 µg/mL), the MIC90 [4] was 0.05 µM (≈ 0.0411 µg/mL) and the MIC90 [5] was 0.04 µM (≈ 0.0329 µg/mL). For the same compound, the MIC90 [6] was 0.11 µM (≈ 0.0905 µg/mL), the MIC90 [7] was 0.22 µM (≈ 0.181 µg/mL) and the MIC90 [8] was 0.14 µM (≈ 0.115 µg/mL). For the same compound, the IC50 at 3 days [10] was greater than 95.7 µM, the MBC99 [9] was 70 mg/L (≈ 0.0851 mM) and the PAE [13] was roughly 60 h. The PAE [14] was roughly 60 h and the PAE [15] was roughly 24 h.
With O=C(CCNCCC(c1ccccc1)c1ccccc1)N1CCCC1 the MIC90 [1] was 23.5 mg/L.
CC(C)N(C(=O)CCNCC(c1ccccc1)c1ccccc1)C(C)C showed an MIC90 [1] of 10.2 mg/L.
In the case of CC(C)N(C(=O)CCN(CC(c1ccccc1)c1ccccc1)C(=O)CCNCC1CCCO1)C(C)C (stereo not given), the MIC90 [1] is reported as 24.2 mg/L.
Compound O=C(CCNCC1CCCO1)NCc1cccc2ccccc12 (stereo not given) has an MIC90 [1] of 87.2 mg/L.
